Laboratory results published in patent US20160045463A1, “USE OF METALLOPROTEASE INHIBITORS IN THE TREATMENT OF POLYCYSTIC LIVER DISEASES” (UNIVERSIDAD DE SALAMANCA, priority 2012, published 2016).

Experiments:
Assay type in all cases: cell-based
[1] = test system: polycystic human cholangiocytes; experiment: Metalloproteolytic activity of culture supernatants, ES001 fluorogenic peptide cleavage; settings: polycystic cholangiocytes vs basal; Table 3 final concentration: IL-6, IL-8 50 ng/ml; 17β-estradiol 1 nM/ml; VEGF, EGF, ENA-78, GRO-α 10 ng/ml; HGF 20 ng/ml; FIG. 9
Experimental: (§1) Metalloproteolytic or metalloprotease activity was measured in supernatants of cultures of normal human cholangiocytes and polycystic human cholangiocytes by an assay based on the cleavage of the ES001 fluorogenic synthetic peptide (R&D Systems Minneapolis, Minn., USA) that emits fluorescence proportional to metalloproteolytic activity. The substrate Mca-Pro-Leu-Gly-Leu-Dpa-Ala-Arg-NH2 [Mca: (7-Methoxycoumarin-4-yl)acetyl, Dpa: N-3-(2,4-Dinitrophenyl)-L-2,3-diaminopropionyl] (Knight C G, et al. FEBS Letters 1992; 296:263) is lysed between glycine and leucine by the action of the MMPs, especially MMP-1 (collagenase 1), MMP-2 (gelatinase A), MMP-7 (matrilysin), MMP-8 (collagenase 2), MMP-9 (gelatinase B), MMP-12 (macrophage elastase), MMP-13 (collagenase 3), MMP-14 (MT1-MMP), MMP-15 (MT2-MMP) and MMP-16 (MT3-MMP).
(§2) The basal metalloproteolytic activity of normal human cholangiocyte and polycystic human cholangiocytes cultures was determined by trypsinising the contents of 250 ml flasks and counting the number of cells in an inverted optical microscope using a Neubauer camera and a ½ dilution of the cell solution with trypan blue (Sigma). Next, 300,000 cells were seeded in each well of a 6-well plate and incubated with enriched DMEM/F-12 medium for 24 hours. After this time, the cells were washed with PBS and the culture medium changed for 2 ml of quiescent medium (DMEM/F-12, 1% FBS and 1% P/S) and incubated for 6 hours at 37° C./5% CO2. The supernatant was collected from each well and centrifuged at 4° C. for 10 minutes at 1,500 rpm to remove the dead cells present in the supernatant. The supernatant was concentrated 50 times using a 15 kDa (Millipore) Amicon Ultra concentrator. Next the concentrated supernatant was incubated for 2 hours at 37° C. with the ES001 fluorogenic peptide at a final concentration of 10 μM. Also, GM6001 (a global MMP inhibitor) and aprotinin (a global inhibitor of serine proteases) (both from Sigma-Aldrich) were used as controls of the specificity of the analysis of MMP activity in the assay. Recombinant MMP-10 (kindly provided by Dr. José Antonio Rodriguez Garcia, Laboratorio de Ateroesclerosis e Inflamación del CIMA, Universidad de Navarra) was used as a positive control and DMEM/F-12 medium without serum was used as the negative control. The fluorescence determination was kinetically measured in a Spectra MAX GeminiXS (Molecular Devices Sunnyvale, Calif., USA) spectrophotometer at excitation-emission wavelengths of 320-405 nm. The fluorescence intensity emitted by the culture medium was extracted from the metalloproteolytic activity values. The metalloproteolytic activity was calculated from the tangent to the curve of the fluorescence values using at least six different points over time for each type of cell and condition.
(§3) To analyse the effect of various stimuli on the metalloproteolytic activity of normal and polycystic human cholangiocytes cultures, a protocol similar to that described before in Example 2 was followed, but in this case the incubation of the cells was with quiescent medium (i.e. DMEM/F12, […]) in the presence of the corresponding stimulus (Table 3). Next, the same procedure as described for the analysis of basal metalloproteolytic activity was followed as described in Example 2.
(§4) Taking into account that: i) basal activity of polycystic human cholangiocytes in culture is greater than that of normal human cholangiocytes and ii) that IL-6 and IL-8 increased the metalloproteolytic activity of normal and polycystic human cholangiocytes, the role of these two cytokines on metalloproteolytic hyperactivity of polycystic human cholangiocytes using antibodies against the receptors of IL-6 (IL6R) and/or IL-8 (CXCR1) was investigated. […]

[2] = test system: normal human cholangiocytes; experiment: as above; settings: normal cholangiocytes vs basal; Table 3 final concentration: IL-6, IL-8 50 ng/ml; 17β-estradiol 1 nM/ml; VEGF, EGF, ENA-78, GRO-α 10 ng/ml; HGF 20 ng/ml; FIG. 9
Experimental: as §1, §2, §3, §4

[3] = test system: polycystic human cholangiocytes; experiment: MMP mRNA expression by quantitative PCR in the presence of IL-6, IL-8 or 17β-estradiol; settings: for expression of MMP-2 (mRNA): FIG. 10; for expression of MMP-3 (mRNA): FIG. 11; for expression of MMP-7 (mRNA): FIG. 12; for expression of MMP-10 (mRNA): FIG. 13; for expression of MMP-11 (mRNA): FIG. 14; for expression of MMP-13 (mRNA): FIG. 15; for expression of MMP-15 (mRNA): FIG. 16; for expression of MMP-17 (mRNA): FIG. 17; for expression of MMP-27 (mRNA): FIG. 18
Experimental: (§5) To determine if the metalloproteolytic hyperactivity of polycystic human cholangiocytes is associated with changes in the pattern of expression of MMPs and their natural inhibitors, TIMPs, at the level of mRNA, this was analysed by quantitative PCR (i.e. qPCR) using the cDNA previously obtained as explained in Example 1, the gene expression of a total of 22 genes, including those containing the members of the metalloprotease family: MMP-1, MMP-2, MMP-3, MMP-7, MMP-8, MMP-9, MMP-10, MMP-11, MMP-13, MMP-14, MMP-15, MMP-16, MMP-17, MMP-18, MMP-24, MMP-25, MMP-26, MMP-27 and their natural inhibitors: TIMP-1, TIMP-2, TIMP-3, TIMP-4. Briefly, 4 μl of the cDNA were taken and 1.8 μl of a 10 μM solution of each primer (final concentration 0.9 μM) and 10 μl of FastSYBR® Green (Applied Biosystems) were added, adding sterile water (Braun) to reach a final volume of 20 μl. The amplification reactions were performed in a StepOne Plus (Applied Biosystems) thermo cycler following the standard protocol conditions for FastSYBR Green®.
(§6) The relative estimate of the mRNA levels of the genes of Table 2 were calculated from the PCR progression curve (fluorescence vs. cycle), where the cycle threshold or Ct was determined from when the fluorescence signal begins to increase exponentially. Thus to calculate the difference of relative expression of the normal and polycystic human cholangiocytes, the data obtained were analysed following the modified method of Livak and Schmittgen (Livak K J, et al. Methods 2001; 25:402), according to the following equation:
(§7) Relative values=1.8^(polycystic or normal cholangiocyte GAPDH−polycystic or normal cholangiocyte GEN)
(§8) Where the superscripts “GAPDH polycystic or normal cholangiocytes” and “Gene polycystic or normal cholangiocytes” correspond to the Ct for GAPDH and for each studied gene. The value of 1.8 (in place of 2) was used because it is assumed that the real efficiency of each amplification cycle is around 80% instead of 100%.
as §3
(§9) Taking into account the increase in metalloproteolytic activity induced by interleukins 6 and 8 and also the oestrogen 17β-estradiol in human cholangiocytes in culture, this was further investigated to determine if the increase in activity was correlated with an increase in gene expression at the level of mRNA of the various MMPs.

[4] = test system: normal human cholangiocytes; experiment: as above; settings: for expression of MMP-2 (mRNA): FIG. 10; for expression of MMP-3 (mRNA): FIG. 11; for expression of MMP-7 (mRNA): FIG. 12; for expression of MMP-10 (mRNA): FIG. 13; for expression of MMP-11 (mRNA): FIG. 14; for expression of MMP-13 (mRNA): FIG. 15; for expression of MMP-15 (mRNA): FIG. 16; for expression of MMP-17 (mRNA): FIG. 17; for expression of MMP-27 (mRNA): FIG. 18
Experimental: as §5, §6, §7, §8, §3, §9

Substance	metalloproteolytic activity in presence of stimulus [1]	metalloproteolytic activity in presence of stimulus [2]	expression of the other metalloproteinases 1, 8, 9, 14, 16, 18, 24 and 26 [3]	expression of MMP-2 (mRNA) [3]	expression of MMP-3 (mRNA) [3]	expression of MMP-7 (mRNA) [3]	expression of MMP-10 (mRNA) [3]	expression of MMP-11 (mRNA) [3]	expression of MMP-13 (mRNA) [3]	expression of MMP-15 (mRNA) [3]	expression of MMP-17 (mRNA) [3]	expression of MMP-27 (mRNA) [3]	expression of the other metalloproteinases 1, 8, 9, 14, 16, 18, 24 and 26 [4]	expression of MMP-2 (mRNA) [4]	expression of MMP-3 (mRNA) [4]	expression of MMP-7 (mRNA) [4]	expression of MMP-10 (mRNA) [4]	expression of MMP-11 (mRNA) [4]	expression of MMP-13 (mRNA) [4]	expression of MMP-15 (mRNA) [4]	further results
ENA-78: epithelial neutrophil-activating peptide 78	did not induce any change	did not induce any change																			
GROα: growth-regulated oncogene a	did not induce any change	did not induce any change																			
HGF: hepatocyte growth factor	did not induce any change	did not induce any change																			
IL-6: cytokine interleukin 6, present in the cystic fluid	increase	increase	did not show changes	increased	increased	increased	none of the 3 molecules caused changes	increased	did not cause changes	increased	increased	increased	did not show changes	none of these modules induced changes	unchanged	None of the 3 molecules caused changes	unchanged	did not change	did not cause changes	did not change	expression of MMP-17 (mRNA) [4]: did not change; expression of MMP-27 (mRNA) [4]: did not change
IL-8: cytokine interleukin 8, present in the cystic fluid	increase	increase	did not show changes	not changed	unchanged	unchanged	none of the 3 molecules caused changes	increased	did not change	not altered	increased	unchanged	did not show changes	none of these modules induced changes	unchanged	None of the 3 molecules caused changes	increased	increased	increased	did not change	expression of MMP-17 (mRNA) [4]: did not change; expression of MMP-27 (mRNA) [4]: did not change
VEGF	did not induce any change	did not induce any change																			
